# Measured values taken from patent US12605359B2, “Proprotein convertase subtilisin/kexin type 9 (PCSK9) inhibitor and pharmaceutical use therefor” (THE KITASATO INSTITUTE, priority 2020, dated 2026).
# Assays:
# PCSK9 [1] = assay: In vitro PCSK9 inhibition test: Western blot of PCSK9/ProPCSK9 in culture medium and cells of HepG2 cells; type: cell-based, human; settings: HepG2, 24 hours; for PCSK9 (in cells) / PCSK9 (in culture medium) / ProPCSK9 (in cells) / Total PCSK9 amount: percentage with respect to total amount of PCSK9 in the control; for total amount of PCSK9, dependence on the concentration added: 1.0 and 10 micro gram/mL; for total amount of PCSK9, dependence on the concentration added / amount of PCSK9 in the culture medium and the cells, as compared with the control: result in words
# Method: HepG2 cells derived from human liver cancer (5×10^5 cells/mL, 0.25 mL/well) were seeded on a 48-well plate. Subject compounds: 1,11-O-o-methylbenzylidene-7-O-p-cyanobenzoyl-1,7,11-trideacetyl pyripyropene A (PRD125), 7-p-cyanobenzoyl-7-deacetyl pyripyropene A (PRD017), 7-O-p-cyanobenzoyl-1,11-di(O-isobutyryl)-1,7,11-trideacetyl pyripyropene A (PRD056), and comparative compounds: pyripyropene A (PPPA) and a known statin drug, atorvastatin (Atr), were each added to the wells at a predetermined concentration, and the cells were cultured in a serum-free medium at 37° C. for 24 hours. As a control, the cells were treated in wells in the absense of compound under similar conditions. After culturing, the culture medium and the cells were collected. PCSK9 in the culture medium and the cells was detected by Western blotting. Using an image analysis software (ImageLab), band intensity of the detected PCSK9 was quantified. The quantitative value of each band intensity was corrected based on the quantitative value of the band intensity of glyceraldehyde-3-phosphate dehydrogenase (GAPDH) that is a loading control for Western blotting. In the figure, FIG. 1A indicates the results of detecting PCSK9 and ProPCSK9 in the culture medium and the cells with PRD017 or PRD056 added, and FIG. 1B indicates the results of detecting PCSK9 and ProPCSK9 in the culture medium and the cells with PRD125, Atr, or PPPA added. In FIG. 2, FIG. 2A indicates the results with PRD017 added, FIG. 2B indicates the results with PRD056 added, and FIG. 2C indicates the results with PRD125 added, respectively. In FIG. 3, FIG. 3A indicates the results with Atr added, and FIG. 3B indicates the results with PPPA added, respectively. In the figures, the horizontal axis indicates the concentration of the compound (micro gram/mL) added, and the vertical axis indicates the total amount of PCSK9(%), respectively. The total amount of PCSK9 is a percentage with respect to the total amount of PCSK9 in the control. The values in Table 1 are percentages with respect to the total amount of PCSK9 in the control.
# PCSK9 [2] = assay: In-vivo PCSK9 inhibition test in high-fat-diet-fed mice; design: species or system mice (C57BL/6J); settings: 10 mg/kg body weight/day in HFD for 8 weeks, versus control group
# Method: Female and male mice (C57BL/6J) were fed with high-fat diet (HFD) for 4 weeks. The mice were grouped into the control group, the PPPA-administered group and PRD125-administered group (N=20 for males and N=20 for females in each group). The PPPA-administered group and the PRD125-administered group were fed with HFD with each subject compound or a comparative compound added for 8 weeks. The control group was fed only with HFD for 8 weeks. The PPPA was administered at a dose of 50 mg/kg body weight/day, and the PRD125 was administered at a dose of 10 mg/kg body weight/day, respectively. After the completion of the administration period, the blood was collected and the liver was extracted under anesthesia, from the mice of each group. The amount of LDL-cholesterol and the amount of PCSK9 in the blood, and the amount of total cholesterol, the amount of cholesteryl ester, and the amount of triglyceride in the liver were measured. The averages and the standard deviations of the measured values in each group were calculated. Further, the p values for the values of the PPPA-administered group and the PRD125-administered group with respect to the value of the control group were calculated by the student t-test. […]
compound,measurement,setting,value
"7-O-p-cyanobenzoyl-1,11-di(O-isobutyryl)-1,7,11-trideacetyl pyripyropene A [PRD056]",PCSK9 (in cells),PCSK9 [1]; 1.0 micro gram/mL,27.2%
same,PCSK9 (in culture medium),PCSK9 [1]; 1.0 micro gram/mL,21.1%
same,ProPCSK9 (in cells),PCSK9 [1]; 1.0 micro gram/mL,8.1%
same,Total PCSK9 amount,PCSK9 [1]; 1.0 micro gram/mL,56.4%
same,amount of PCSK9 in the culture medium with respect to the amount of PCSK9 in the culture medium of the control,PCSK9 [1]; 10 micro gram/mL,30%
same,amount of ProPCSK9 in the cells with respect to the amount of ProPCSK9 in the cells of the control,PCSK9 [1]; 10 micro gram/mL,44.8%
same,PCSK9 (in cells),PCSK9 [1]; 10 micro gram/mL,34.5%
same,PCSK9 (in culture medium),PCSK9 [1]; 10 micro gram/mL,15.2%
same,ProPCSK9 (in cells),PCSK9 [1]; 10 micro gram/mL,6.4%
same,Total PCSK9 amount,PCSK9 [1]; 10 micro gram/mL,56.1%
same,"total amount of PCSK9, dependence on the concentration added",PCSK9 [1],decreased depending on the concentration added
"CC(C)c1c(C(=O)Nc2ccccc2)c(-c2ccccc2)c(-c2ccc(F)cc2)n1CC[C@@H](O)C[C@@H](O)CC(=O)O [Atr, atorvastatin, reference compound]",PCSK9 (in cells),PCSK9 [1]; 1.0 micro gram/mL,49.4%
same,PCSK9 (in culture medium),PCSK9 [1]; 1.0 micro gram/mL,129.3%
same,ProPCSK9 (in cells),PCSK9 [1]; 1.0 micro gram/mL,90.0%
same,Total PCSK9 amount,PCSK9 [1]; 1.0 micro gram/mL,268.7%
same,amount of PCSK9 in the cells with respect to the amount of PCSK9 in the cells of the control,PCSK9 [1]; 10 micro gram/mL,175.6%
same,amount of PCSK9 in the culture medium with respect to the amount of PCSK9 in the culture medium of the control,PCSK9 [1]; 10 micro gram/mL,273.8%
same,amount of ProPCSK9 in the cells with respect to the amount of ProPCSK9 in the cells of the control,PCSK9 [1]; 10 micro gram/mL,682.5%
same,PCSK9 (in cells),PCSK9 [1]; 10 micro gram/mL,63.2%
same,PCSK9 (in culture medium),PCSK9 [1]; 10 micro gram/mL,136.1%
same,ProPCSK9 (in cells),PCSK9 [1]; 10 micro gram/mL,97.6%
same,Total PCSK9 amount,PCSK9 [1]; 10 micro gram/mL,296.8%
same,"amount of PCSK9 in the culture medium and the cells, as compared with the control",PCSK9 [1],rather increased
"CC(=O)OC[C@@]1(C)[C@@H]2C[C@H](OC(C)=O)[C@@]3(C)Oc4cc(-c5cccnc5)oc(=O)c4[C@H](O)[C@@H]3[C@@]2(C)CC[C@@H]1OC(C)=O [PPPA, pyripyropene A, reference compound]",PCSK9 (in cells),PCSK9 [1]; 1.0 micro gram/mL,35.7%
same,PCSK9 (in culture medium),PCSK9 [1]; 1.0 micro gram/mL,45.2%
same,ProPCSK9 (in cells),PCSK9 [1]; 1.0 micro gram/mL,35.7%
same,Total PCSK9 amount,PCSK9 [1]; 1.0 micro gram/mL,116.6%
same,PCSK9 (in cells),PCSK9 [1]; 10 micro gram/mL,38.4%
same,PCSK9 (in culture medium),PCSK9 [1]; 10 micro gram/mL,31.7%
same,ProPCSK9 (in cells),PCSK9 [1]; 10 micro gram/mL,19.7%
same,Total PCSK9 amount,PCSK9 [1]; 10 micro gram/mL,89.8%
same,"amount of PCSK9 in the culture medium and the cells, as compared with the control",PCSK9 [1],no significant difference
"CC(=O)OCC1(C)[C@@H](OC(C)=O)CC[C@]2(C)[C@H]3[C@@H](O)c4c(cc(-c5cccnc5)oc4=O)O[C@]3(C)[C@@H](OC(=O)c3ccc(C#N)cc3)C[C@@H]12 (stereo partly shown) [PRD017, 7-p-cyanobenzoyl-7-deacetyl pyripyropene A]",PCSK9 (in cells),PCSK9 [1]; 1.0 micro gram/mL,40.3%
same,PCSK9 (in culture medium),PCSK9 [1]; 1.0 micro gram/mL,28.3%
same,ProPCSK9 (in cells),PCSK9 [1]; 1.0 micro gram/mL,11.7%
same,Total PCSK9 amount,PCSK9 [1]; 1.0 micro gram/mL,80.3%
same,amount of PCSK9 in the culture medium with respect to the amount of PCSK9 in the culture medium of the control,PCSK9 [1]; 10 micro gram/mL,44%
same,amount of ProPCSK9 in the cells with respect to the amount of ProPCSK9 in the cells of the control,PCSK9 [1]; 10 micro gram/mL,46%
same,PCSK9 (in cells),PCSK9 [1]; 10 micro gram/mL,29.4%
same,PCSK9 (in culture medium),PCSK9 [1]; 10 micro gram/mL,22.0%
same,ProPCSK9 (in cells),PCSK9 [1]; 10 micro gram/mL,6.6%
same,Total PCSK9 amount,PCSK9 [1]; 10 micro gram/mL,58%
same,"total amount of PCSK9, dependence on the concentration added",PCSK9 [1],decreased depending on the concentration added
"Cc1ccccc1[C@@H]1OCC2(C)C3C[C@H](OC(=O)c4ccc(C#N)cc4)[C@@]4(C)Oc5cc(-c6cccnc6)oc(=O)c5[C@H](O)C4[C@@]3(C)CC[C@@H]2O1 (stereo partly shown) [PRD125, 1,11-O-o-methylbenzylidene-7-O-p-cyanobenzoyl-1,7,11-trideacetyl pyripyropene A]",amount of PCSK9 in the blood,PCSK9 [2]; HFD-fed male and female mice,significantly reduced
same,amount of triglyceride in the liver and the blood,PCSK9 [2]; HFD-fed mice,markedly reduced
same,PCSK9 (in cells),PCSK9 [1]; 1.0 micro gram/mL,20.7%
same,PCSK9 (in culture medium),PCSK9 [1]; 1.0 micro gram/mL,23.0%
same,ProPCSK9 (in cells),PCSK9 [1]; 1.0 micro gram/mL,12.8%
same,Total PCSK9 amount,PCSK9 [1]; 1.0 micro gram/mL,56.5%
same,amount of PCSK9 in the culture medium with respect to the amount of PCSK9 in the culture medium of the control,PCSK9 [1]; 10 micro gram/mL,41.6%
same,PCSK9 (in cells),PCSK9 [1]; 10 micro gram/mL,23.6%
same,PCSK9 (in culture medium),PCSK9 [1]; 10 micro gram/mL,20.7%
same,ProPCSK9 (in cells),PCSK9 [1]; 10 micro gram/mL,10.4%
same,Total PCSK9 amount,PCSK9 [1]; 10 micro gram/mL,54.7%
same,"total amount of PCSK9, dependence on the concentration added",PCSK9 [1],decreased depending on the concentration added
